Laboratory results reported in PubChem BioAssay (NCI).
Where “and” joins values, the source holds several entries; their conditions need not be identical. Equal entries are not always repeated.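 Compound exposure: 48 hours, 5 concentrations, 96-well plates. GI50 = concentration required for 50% inhibition of growth. TGI: concentration producing complete growth inhibition.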

How the values were obtained:
Assay in all cases: NCI-60 cell line screen, 48 h
[1] = system: HCT-15 colon
[2] = system: SF-539 CNS
[3] = system: SNB-19 CNS
[4] = system: HT29 colon
[5] = system: RPMI-8226 leukemia
[6] = system: NCI-H23 lung
[7] = system: TK-10 renal
[8] = system: HOP-92 NSCLC
[9] = system: U251 CNS
[10] = system: HCC-2998 colon
[11] = system: CAKI-1 renal
[12] = system: MDA-MB-231 breast
[13] = system: KM12 colon
[14] = system: ACHN renal
[15] = system: MCF7 breast
[16] = system: OVCAR-8 ovarian
[17] = system: LOX IMVI melanoma
[18] = system: K-562 leukemia
[19] = system: PC-3 prostate
[20] = system: OVCAR-3 ovarian
[21] = system: SW-620 colon
[22] = system: RXF 393 renal
[23] = system: OVCAR-4 ovarian
[24] = system: HS 578T breast
[25] = system: NCI-H522 lung
[26] = system: 786-0 renal
[27] = system: SN12C renal
[28] = system: MALME-3M melanoma
[29] = system: BT-549 breast
[30] = system: IGROV1 ovarian
[31] = system: A549 NSCLC
[32] = system: M14 melanoma
[33] = system: EKVX NSCLC
[34] = system: SF-268 CNS
[35] = system: UACC-257 melanoma
[36] = system: SK-MEL-28 melanoma
[37] = system: MDA-MB-435
[38] = system: CCRF-CEM leukemia
[39] = system: OVCAR-5 ovarian
[40] = system: NCI/ADR-RES ovarian
[41] = system: NCI-H460 lung
[42] = system: T-47D breast
[43] = system: HCT-116 colon
[44] = system: HOP-62 NSCLC
[45] = system: DU-145 prostate
[46] = system: UACC-62 melanoma
[47] = system: SK-OV-3 ovarian
[48] = system: SK-MEL-2 melanoma
[49] = system: UO-31 renal
[50] = system: NCI-H226 lung
[51] = system: SK-MEL-5 melanoma
[52] = system: COLO 205 colon
[53] = system: A498 renal
[54] = system: MOLT-4 leukemia
[55] = system: SR leukemia
[56] = system: SNB-75 CNS
[57] = system: SF-295 CNS
[58] = system: HL-60(TB) leukemia

FC(F)c1nc2ccccc2n1-c1nc(N2CCOCC2)nc(N2CCOCC2)n1
GI50 [1]: 389 nM and 479 nM
TGI [1]: > 100000 nM
GI50 [2]: 382 nM and 457 nM
TGI [2]: 2290 nM and 3520 nM
GI50 [3]: 1280 nM and 1740 nM
TGI [3]: > 100000 nM
GI50 [4]: 238 nM and 370 nM
TGI [4]: > 100000 nM
GI50 [5]: 482 nM and 345 nM
TGI [5]: > 7200 nM and 4260 nM
GI50 [6]: 492 nM and 617 nM
GI50 [7]: 129 nM and 205 nM
TGI [7]: 907 nM and 1580 nM
GI50 [8]: 48.6 nM and 54.8 nM
TGI [8]: 382 nM and 551 nM
GI50 [9]: 735 nM and 559 nM
TGI [9]: > 100000 nM
GI50 [10]: 497 nM and 807 nM
GI50 [11]: 197 nM and 268 nM
TGI [11]: 4250 nM and 2350 nM
GI50 [12]: 448 nM and 2130 nM
GI50 [13]: 739 nM and 969 nM
TGI [13]: > 100000 nM
GI50 [14]: 299 nM and 397 nM
TGI [14]: > 100000 nM
GI50 [15]: 136 nM and 129 nM
TGI [15]: > 62700 nM
GI50 [16]: 639 nM and 492 nM
TGI [16]: > 100000 nM
GI50 [17]: 376 nM and 491 nM
GI50 [18]: 4090 nM and 5150 nM
TGI [18]: > 100000 nM
GI50 [19]: 72.2 nM and 113 nM
GI50 [20]: 204 nM and 281 nM
TGI [20]: 3440 nM and 5670 nM
GI50 [21]: 573 nM and 1160 nM
TGI [21]: > 100000 nM
GI50 [22]: 96.4 nM and 138 nM
TGI [22]: 625 nM and 674 nM
GI50 [23]: 797 nM and 475 nM
TGI [23]: 6870 nM and 5390 nM
GI50 [24]: 143 nM and 68.4 nM
TGI [24]: 995 nM and 773 nM
GI50 [25]: 222 nM and 295 nM
TGI [25]: 2690 nM
GI50 [26]: 146 nM and 223 nM
TGI [26]: 1430 nM and 2940 nM
GI50 [27]: 247 nM and 332 nM
TGI [27]: > 100000 nM
GI50 [28]: 178 nM and 160 nM
TGI [28]: 1650 nM and 919 nM
GI50 [29]: 99.2 nM and 145 nM
TGI [29]: 1260 nM and 3970 nM
GI50 [30]: 62.1 nM and 165 nM
TGI [30]: 369 nM and 593 nM
GI50 [31]: 518 nM and 584 nM
TGI [31]: > 100000 nM
GI50 [32]: 566 nM and 464 nM
GI50 [33]: 445 nM
TGI [33]: 4880 nM
GI50 [34]: 361 nM and 600 nM
TGI [34]: > 100000 nM
GI50 [35]: 264 nM and 250 nM
TGI [35]: 3090 nM and 3640 nM
GI50 [36]: 174 nM and 244 nM
TGI [36]: 1870 nM and 3790 nM
GI50 [37]: 397 nM and 429 nM
GI50 [38]: 495 nM and 556 nM
TGI [38]: > 100000 nM
GI50 [39]: 329 nM and 447 nM
TGI [39]: > 100000 nM
GI50 [40]: 457 nM and 496 nM
TGI [40]: > 100000 nM
GI50 [41]: 276 nM and 303 nM
TGI [41]: > 100000 nM
GI50 [42]: 50.2 nM and 110 nM
TGI [42]: 388 nM and 565 nM
GI50 [43]: 618 nM and 734 nM
TGI [43]: > 100000 nM
GI50 [44]: 495 nM and 1100 nM
TGI [44]: 5360 nM and 15700 nM
GI50 [45]: 420 nM and 432 nM
TGI [45]: > 100000 nM
GI50 [46]: 75.2 nM and 233 nM
TGI [46]: 860 nM and 1940 nM
GI50 [47]: 175 nM and 270 nM
TGI [47]: 1030 nM and 1940 nM
GI50 [48]: 519 nM and 1080 nM
TGI [48]: 2790 nM and 14300 nM
GI50 [49]: 46 nM and 103 nM
TGI [49]: 835 nM and 1380 nM
GI50 [50]: 249 nM and 452 nM
GI50 [51]: 453 nM and 338 nM
TGI [51]: 2110 nM and 2370 nM
GI50 [52]: 277 nM and 507 nM
GI50 [53]: 30.3 nM and 21.6 nM
TGI [53]: 169 nM and 138 nM
GI50 [54]: 347 nM
TGI [54]: > 100000 nM
GI50 [55]: 686 nM and 578 nM
TGI [55]: > 100000 nM
GI50 [56]: 25.7 nM and 29.5 nM
TGI [56]: 403 nM and 481 nM
GI50 [57]: 237 nM and 196 nM
TGI [57]: 1630 nM and 1780 nM
GI50 [58]: 153 nM and 351 nM
TGI [58]: > 100000 nM
